# Assays:
# Met kinase [1] = target: T1, Met kinase (Homo sapiens, UniProt P08581); experiment: Met kinase inhibition (cell); format: cell-based
# Met kinase [2] = target: T1, Met kinase; experiment: Met kinase inhibition, flashplate method (enzyme); format: biochemical; set-up: 6His (N); purchased Upstate 14-526; host or cells: Sf21 insect cells (S. frugiperda), baculovirus
# Procedure: The test plates used are 96-well Flashplate® microtitre plates from Perkin Elmer (Cat. No SMP200). The components of the kinase reaction described below are pipetted into the assay plate. The Met kinase and the substrate poly Ala-Glu-Lys-Tyr, (pAGLT, 6:2:5:1), are incubated for 3 hrs at room temperature with radioactively labelled ^33P-ATP in the presence and absence of test substances in a total volume of […]. The reaction is terminated using 150 μl of a 60 mM EDTA solution. After incubation for a further 30 min at room temperature, the supernatants are filtered off with suction, and the wells are washed three times with 200 μl of 0.9% NaCl solution each time. The measurement of the bound radioactivity is carried out by means of a scintillation measuring instrument (Topcount NXT, Perkin-Elmer).
# The full value used is the inhibitor-free kinase reaction. This should be approximately in the range 6000-9000 cpm. The pharmacological zero value used is staurosporin in a final concentration of 0.1 mM. The inhibitory values (IC50) are determined using the RS1_MTS program.
# 30 μl of assay buffer 10 μl of substance to be tested in assay buffer with 10% of DMSO 10 μl of ATP (final concentration 1 μM cold, 0.35 μCi of ^33P-ATP) 50 μl of Met kinase/substrate mixture in assay buffer; • (10 ng of enzyme/well, 50 ng of pAGLT/well)
# T1 sequence (P08581 25-1390): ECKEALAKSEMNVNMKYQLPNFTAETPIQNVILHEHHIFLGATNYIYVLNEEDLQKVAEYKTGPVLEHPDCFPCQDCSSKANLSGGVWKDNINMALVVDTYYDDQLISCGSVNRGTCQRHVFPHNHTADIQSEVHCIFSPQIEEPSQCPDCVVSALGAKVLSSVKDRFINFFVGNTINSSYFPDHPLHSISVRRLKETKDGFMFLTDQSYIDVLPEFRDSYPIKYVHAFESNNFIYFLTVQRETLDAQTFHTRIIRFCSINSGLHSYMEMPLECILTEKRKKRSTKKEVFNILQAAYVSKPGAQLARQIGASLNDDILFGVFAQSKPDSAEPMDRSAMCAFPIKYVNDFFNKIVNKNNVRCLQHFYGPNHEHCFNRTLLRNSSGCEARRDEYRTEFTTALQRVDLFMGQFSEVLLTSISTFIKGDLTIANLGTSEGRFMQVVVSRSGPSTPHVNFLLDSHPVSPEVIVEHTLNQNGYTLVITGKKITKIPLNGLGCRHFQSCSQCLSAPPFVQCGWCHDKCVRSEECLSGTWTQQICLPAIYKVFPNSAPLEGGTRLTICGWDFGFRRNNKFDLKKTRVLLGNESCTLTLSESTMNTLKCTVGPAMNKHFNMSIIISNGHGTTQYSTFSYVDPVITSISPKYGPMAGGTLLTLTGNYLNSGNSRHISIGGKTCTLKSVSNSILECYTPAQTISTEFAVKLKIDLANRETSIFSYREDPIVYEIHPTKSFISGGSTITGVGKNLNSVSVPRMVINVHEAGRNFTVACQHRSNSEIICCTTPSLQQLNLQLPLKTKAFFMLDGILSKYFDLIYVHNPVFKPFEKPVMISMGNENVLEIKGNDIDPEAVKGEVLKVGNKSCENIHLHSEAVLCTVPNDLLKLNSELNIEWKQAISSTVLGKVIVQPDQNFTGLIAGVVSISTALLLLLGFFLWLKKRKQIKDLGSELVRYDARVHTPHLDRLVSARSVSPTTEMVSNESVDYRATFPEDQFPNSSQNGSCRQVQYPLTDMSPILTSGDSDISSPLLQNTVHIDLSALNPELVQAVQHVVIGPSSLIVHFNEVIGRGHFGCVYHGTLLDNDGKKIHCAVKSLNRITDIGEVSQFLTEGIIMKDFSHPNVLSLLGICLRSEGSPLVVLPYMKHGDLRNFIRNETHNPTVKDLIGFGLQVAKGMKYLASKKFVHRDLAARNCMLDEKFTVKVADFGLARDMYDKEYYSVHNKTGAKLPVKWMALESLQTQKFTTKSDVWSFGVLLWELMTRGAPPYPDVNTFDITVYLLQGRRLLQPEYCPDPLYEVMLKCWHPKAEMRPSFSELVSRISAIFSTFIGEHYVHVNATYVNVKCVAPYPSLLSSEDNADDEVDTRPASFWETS
IC50 (Met kinase [1]),IC50 (Met kinase [2]),melting point,SMILES
> 10 µM,0.1 to 10 µM,,N#Cc1ccc2[nH]c(-c3ccncc3)c(-c3cccc(F)c3)c2n1 [Compound A58]
,> 10 µM,,"N#Cc1ccc2[nH]c(-c3cncnc3)c(-c3cccc(Cl)c3)c2n1 [Compound A62, 3-(3-Chlorophenyl)-2-pyrimidin-5-yl-1H-pyrrolo[3,2-b]pyridine-5-carbonitrile]"
> 10 µM,0.1 to 10 µM,,NC(=O)c1ccc2[nH]c(-c3ccncc3)c(-c3cccc(Cl)c3)c2n1 [Compound A60]
,> 10 µM,,N#Cc1ccc2[nH]c(-c3ccc(F)cc3)c(-c3ccncc3)c2n1 [Compound A20]
,,230 to 232 °C,"N#Cc1ccc2[nH]c(-c3cncnc3)c(-c3ccc(F)cc3)c2n1 [Compound A14, 3-(4-fluorophenyl)-2-(pyrimidin-5-yl)-1H-pyrrolo[3,2-b]pyridine-5-carbonitrile]"
,,230 °C,N#Cc1ccc2[nH]c(-c3ccncc3)c(-c3ccc(F)cc3)c2n1
> 10 µM,0.1 to 10 µM,,O=C(O)c1ccc2[nH]c(-c3ccncc3)c(-c3cccc(Cl)c3)c2n1 [Compound A59]
> 10 µM,> 10 µM,,O=C(NCCN1CCOCC1)c1ccc2[nH]c(-c3ccncc3)c(-c3cccc(Cl)c3)c2n1 [Compound A61]
